Laboratory results as given in patent US8703427B2, “Biological materials and uses thereof” (PhotoBiotics Limited, priority 2005, dated 2014).

Tests used:
[1] = system: SKOV3 cells; assay: In vitro PDT cell killing (Cytotox-96), antigen-positive cells; type: cell-based, human; settings: 30 min incubation, laser light 2 min, 1.4 J/cm^2, cell kill assay after 48 hours
Procedure: (§1) • 1. […] The flask was incubated at 37° C., 5% CO2 for 15 mins or until the cells had detached from the flask. The cells were then placed in a 50 ml Falcon tube and the trypsin deactivated by adding 15 ml DMEM or McCoy's medium. • 3. Cells (20 μl) were taken out of the tube and placed on a haemocytometer for counting. The remaining cells were harvested at 1800 g for 10 min at room temperature and the pellet gently resuspended in 1 ml of DMEM or McCoy's medium. The cells were thoroughly resuspended and a further 19 ml of DMEM or McCoy's medium added. The cells were diluted in DMEM or McCoy's medium accordingly to give 2×10^6 cells/ml. Cells (50 μl) were then added to each well of a 96 well plate and incubated overnight at 37° C. and 5% CO2. • 4. […] Cells were washed once with PBS and 50 μl of the conjugate added to wells in quadruplicate. Control wells were also included (wells with conjugate added but not exposed to light, and wells with neither conjugate added nor exposed to light). […] Cells were incubated in the conjugate or free PS (concentration varies) for 30 min at 37° C., 5% CO2 and then washed 3 times with PBS. […] The PBS was removed from each well and 100 μl of DMEM or McCoy's medium added. The plates were loosely wrapped in foil, but covered adequately so that no ambient light could enter.

[2] = system: KB cells; assay: In vitro PDT cell killing (Cytotox-96), antigen-negative cells; type: cell-based, human; settings: 30 min incubation, laser light 2 min, 1.4 J/cm^2, cell kill assay after 48 hours
Procedure: as §1

[3] = system: vision loss associated with AMD; settings: PDT compared to the placebo control; cited from earlier work
[4] = system: Oral cancer; settings: clinical PDT, over 5-53 months; cited from earlier work
[5] = system: Chest wall recurrence in breast cancer; settings: clinical PDT; cited from earlier work
[6] = system: Barrett's mucosal cancer; settings: clinical PDT; cited from earlier work
[7] = system: Barrett's oesophagus cancer; settings: clinical PDT, systemic; cited from earlier work
[8] = system: Basal cell cancer of skin; settings: clinical PDT, topical; cited from earlier work
[9] = molecular target: Her-2 receptor (human) (UniProt P04626); assay: cell-based or functional assay
[10] = in vivo; cited from earlier work
[11] = system: Bladder cancer; settings: clinical PDT; cited from earlier work
[12] = Fluorescence of conjugates in PBS (excitation 410 nm, emission 680 nm); type: physicochemical; settings: measured in PBS buffer
Procedure: • 1. Serial dilutions (halving concentrations) of the conjugates were made in PBS and the fluorescence was measured at an excitation wavelength of 410 nm and an emission wavelength of 680 nm. • 2. These were compared to free PPa in PBS. Examples are shown for c6.5 scFv-PPa (FIG. 11) and MFE scFv-PPA (+/− benzoic acid) (FIG. 12)

[13] = system: KB cells; assay: Immunofluorescent microscopy, HER-2-negative cells; type: cell-based, human; settings: 1 hour incubation; images and emission spectra
Procedure: FIG. 24—Immunofluorescent microscopy of C6.5-PPa photo-immunoconjugate Antigen negative KB cells (A-D) or antigen positive SKOV3 cells (E-J) were incubated with free PPa or C6.5-PPa photo-immunoconjugate for 1 hour. Images and emission spectra were recorded.
• 1. Round coverslips were washed in ethanol and rinsed in PBS. Coverslips were then placed in 12-well tissue culture plates. • 2. SKOV3 cells were trypsinised and washed with PBS. The cell pellet was resuspended in McCoy's media and cells were seeded onto the coverslips at 2×10^5 cells/ml. The cells were incubated overnight at 37° C. and 5% CO2. • 3. The coverslips with the adherent cells were rinsed carefully in PBS and either C6-PPa or PBS was added to the wells. The cells were incubated at 37° C. and 5% CO2 for 30 minutes after which time they were washed carefully with PBS. • 4. The cells were fixed onto the coverslips by incubating in 2 ml 4% paraformaldehyde for 60 minutes at room temperature. After this time, the coverslips were washed with PBS and inverted cell-side down onto glass slides. The edges of the coverslips were then sealed using nail varnish. • 5. Fluorescence imaging was then performed using an Ar+ laser (418 nm) as excitation source, using a Leica laser scanning confocal microscope, images are shown in FIGS. 20 and 24, and the emission spectrum is shown in FIGS. 21 and 24.

For “benzoporphyrin derivative mono acid [Verteporfin (Visudyne™)]”, the IC50 [1] is given as 15.3 µM, the IC50 [2] is given as 10 µM and the “recovering vision loss associated with AMD” value [3] is given as “more effective”.
In the case of Dihematoporphyrin ether, the complete response [4] is given as 87% complete response, the complete response [5] is given as 20% complete response, and the partial response [5] is given as 45% partial response.
In the case of porfimer sodium, the “conversion to normal epithelium” value [6] is listed as 75% conversion to normal and the tumours [6] is listed as “eliminated”.
For NCC(=O)CCC(=O)O [ALA, 5-aminolaevulinic acid], the High-grade dysplasia [7] is given as “erradicated in all patients” and the complete response [8] is given as 90% complete response.
Work on “C6.5 scFv-Verteporfin (Visudyne™) conjugate” yielded an IC50 of in vitro PDT cell killing on antigen-positive SKOV3 cells [9] of 2.2 µM.
In the case of Oc1cccc(-c2c3nc(c(-c4cccc(O)c4)c4ccc([nH]4)c(-c4cccc(O)c4)c4nc(c(-c5cccc(O)c5)c5ccc2[nH]5)CC4)C=C3)c1 [Foscan™, meta-tetrahydroxyphenyl chlorin], the skin photosensitivity [10] is given as “about 2 weeks”.
In the case of Hematoporphyrin derivative, the “alive after 5 years” value [11] is listed as 30% alive after 5 years and the complete response [11] is listed as 74% complete response,.
For Pyropheophorbide a [PPa], the “fluorescence / photophysical properties” value [12] was “does not fluoresce significantly” and the “uptake of PPa, KB cells vs SKOV3 cells” value [13] was “over 2 fold”.
